This passage reports IC50 results from patent US20220194960A1, “WEE1 INHIBITOR AND PREPARATION AND USE THEREOF” (SHOUYAO HOLDINGS (BEIJING) CO., LTD., priority 2019, published 2022).

The structures appear in SMILES notation.

One test deals with T1, WEE1 kinase (Homo sapiens, UniProt P30291).
T1 construct: purchased Carna bioscience
Nature of the test: WEE1 kinase binding assay (LanthaScreen EU). The note with it: WEE1 kinase 20 nM, Kinase Tracer 178 100 nM, 23° C. for 60 min, read-out: WEEI (IC50). Here is the method:
1. Assay for WEE1 Kinase Inhibitory Activity (IC50) on Compounds
The WEE1 kinase binding assay was established and optimized with LanthaScreen EU for the determination of the activity of compounds. 10 mM compounds were subjected to ten-fold gradient dilution in 100% DMSO (6 concentrations in total), 5 μL of diluent from each concentration was added to 45 μL of reaction buffer (50 mM HEPES (4-hydroxyethylpiperazine ethanesulfonic acid), pH 7.5, 10 mM MgCl2 (magnesium chloride), 1 mM EGTA (ethylene glycol diethyl ether diamine tetraacetic acid), 0.01% Brij-35 (polyoxyethylene lauryl ether)) for blending. On this basis, 2 μL diluent from each concentration was added to 48 μL of reaction buffer for blending as a 4*compound (final concentrations of 1000, 100, 10, 1, 0.1, 0 nM) for later use. Reaction buffer was used to formulate 4*WEE1 kinase (purchased from Carna bioscience, a final concentration of 20 nM), 4*LanthaScreen EU-anti-GST Antibody (purchased from Invitrogen, PV5594, a fuel concentration of 2 nM), and 4*Kinase Tracer 178 (purchased from Invitrogen, PV5593, a final concentration of 100 nM). 2.5 μL of 4*compound was added to a 384-well plate (OptiPlate-384, purchased from PerkinElmer), followed by adding 2.5 μL of 4*WEE1 kinase, standing for 5 min at room temperature. Then 2.5 μL of 4*LanthaScreen EU-anti-GST Antibody was added followed by 2.5 μL of 4*Kinase Tracer 178. The reaction was started by centrifugation (a total reaction volume of 10 μL). The 384-well plate was wrapped with tin foil paper and placed in an incubator at 23° C. for 60 min. Fluorescence values (excitation at 320 nm, detecting emitted light at 665 nm and 615 nm, and a ratio of the two as enzyme activity) were read on Envision (purchased from PerkinElmer). The enzyme activity of each compound was measured at 6 concentrations, and the IC50 value of the compound was calculated using GraFit6.0 software (Erithacus Software).
The aforementioned “*” refers to multiplying, representing multiples.
On the technique in general: TR-FRET usually uses a lanthanide donor and a delayed reading to cut background.

Test [1] relates to Human non-small cell lung cancer cells NCI-H1299. Nature of the test: NCI-H1299 cell proliferation inhibition (CellTiter-Glo). It is filed as cell-based. The note with it: cultured 3 days, table head NCI-H1975, method NCI-H1299. Here is the method:
2. Determination of Cell Proliferation Activity of Compounds:
NCI-H1299 cell proliferation inhibition screening method was established using CellTiter-fib detection reagent from Promega.
Human non-small cell lung cancer cells NCI-H1299 were cultured in 25 cm^2 or 75 cm^2 plastic tissue culture flasks (Corning) filled with DMEM (Gibco) medium supplemented with 10% fetal bovine serum (Hyclone) under 37° C., 95% air, and 5% CO2, and subcultured 2-3 times a week.
Cells were seeded at 1000 cells/well in a 96-well cell culture plate (Corning), 195 μL/well, and cultured under 37° C., 95% air, and 5% CO2. The next day test compound was added: 10 mM compounds (dissolved in DMSO) were subjected to 3-fold gradient dilution in DMSO, 2 μL of diluent from each concentration was added to 48 μL of serum-fret medium, and finally 5 μL of the diluted compound was added to the plate seeded with cells. The final concentration of DMSO in the cell culture was 0.1% and the foul concentration of the test compound was 0.3 nM-10 μM. The cells were cultured at 37° C. for 3 days.

T1 sequence (P30291 whole entry): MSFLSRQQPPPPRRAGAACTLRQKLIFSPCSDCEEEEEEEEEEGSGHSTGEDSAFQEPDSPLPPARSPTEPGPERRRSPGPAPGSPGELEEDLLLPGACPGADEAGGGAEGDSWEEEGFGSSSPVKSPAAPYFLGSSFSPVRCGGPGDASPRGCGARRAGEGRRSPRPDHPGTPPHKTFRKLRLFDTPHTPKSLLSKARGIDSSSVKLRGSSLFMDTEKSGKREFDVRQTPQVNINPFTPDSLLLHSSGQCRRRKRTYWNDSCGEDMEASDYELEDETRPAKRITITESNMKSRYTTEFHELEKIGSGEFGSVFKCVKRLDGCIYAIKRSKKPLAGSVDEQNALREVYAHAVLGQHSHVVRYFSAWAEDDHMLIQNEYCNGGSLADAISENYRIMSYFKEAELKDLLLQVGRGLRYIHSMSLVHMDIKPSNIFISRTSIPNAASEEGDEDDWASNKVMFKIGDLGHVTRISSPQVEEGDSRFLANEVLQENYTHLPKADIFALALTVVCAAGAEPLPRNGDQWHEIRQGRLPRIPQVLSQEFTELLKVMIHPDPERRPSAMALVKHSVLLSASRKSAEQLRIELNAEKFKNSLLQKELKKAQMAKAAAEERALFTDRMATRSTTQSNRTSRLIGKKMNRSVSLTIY

In general, IC50 refers to the concentration at which inhibition is half-maximal. As to `Cc1cc2cnc(Nc3ccc(N4CCN(C)CC4)cc3)nc2n1-c1cccc(N=S(C)(C)=O)n1` [Example 13, ((6-(6-methyl-2 ((4 (4-methylpiperazin-1-yl)phenyl)amino)-7H-pyrrolo[2,3-d]pyrimidin-7-yl)pyridin-2-yl)imino)dimethyl-λ^6-sulfanone], the IC50 on WEE1 kinase is 510 pM; in test [1] (Homo sapiens, 72 h), 59000 pM.

As for `COC(=O)CN1CCN(c2ccc(Nc3ncc4cc(C5CC5)n(-c5cccc(N=S(C)(C)=O)n5)c4n3)cc2)CC1` [Example 127], the IC50 at WEE1 kinase worked out at 660 pM; in test [1] (Homo sapiens, 72 h), 70000 pM.

Take `CN1CCN(c2ccc(Nc3ncc4cc(C5CC5)n(-c5cccc(N=S(C)(C)=O)n5)c4n3)cc2F)CC1` [Example 40, ((6-(2-(((3-fluoro-4-(4-methylpiperazin-1-yl)phenyl))amino) 6-cyclopropyl-7H-pyrrolo[2,3-d]pyrimidin-7-yl)pyridin-2-yl)imino)dimethyl-λ^6-sulfanone]: the IC50 at WEE1 kinase came to 510 pM; in test [1] (Homo sapiens, 72 h), 42000 pM.

As for `Cc1cc2cnc(Nc3ccc(N4CCC5(CCN(C)CC5)CC4)cc3)nc2n1-c1cccc(N=S(C)(C)=O)n1` [Example 139, ((6-(6-methyl-2-((4-(9-methyl-3,9-diazaspiro[5.5]undecan-3-yl)phenyl)amino)-7H-pyrrolo[2,3-d]pyrimidin-7-yl)pyridin-2-yl)imino)dimethyl-λ^6-sulfanone], the IC50 at WEE1 kinase amounted to 690 pM; in test [1] it was 64000 pM.

`CN(C)CCN(C)c1ccc(Nc2ncc3c(F)c(C4CC4)n(-c4cccc(N=S(C)(C)=O)n4)c3n2)cc1` [Example 14, ((6-(5-fluoro-2-((4-((2-(dimethylamino)ethyl)(methyl)amino)phenyl)amino)-6-cyclopropyl-7H-pyrrolo[2,3-d]pyrimidin-7-yl)pyridin-2-yl)imino)dimethyl-λ^6-sulfanone]: on WEE1 kinase, the IC50 was determined as 1000 pM.

As to `CN1CCN(c2ccc(Nc3ncc4cc(C5CC5)n(-c5cccc(C(C)(C)O)n5)c4n3)cc2)CC1` [Example 55, 2-(6-(2-((4-(4-methylpiperazin-1-yl)phenyl)amino)-6-cyclopropyl-7H-pyrrolo[2,3-d]pyrimidin-7-yl)pyridin-2-yl)propan-2-ol], on WEE1 kinase, the IC50 amounted to 980 pM.

As to `CN1CCN(c2ccc(Nc3ncc4c(F)c(C5CC5)n(-c5cccc(N=S(C)(C)=O)n5)c4n3)cc2)CC1CO` (stereo not shown) [Example 27, ((6-(6-cyclopropyl-5-fluoro-2 ((4-(3-hydroxymethyl-4-methylpiperazin-1-yl)phenyl)amino)-7H-pyrrolo[2,3-d]pyrimidin-7-yl)pyridin-2-yl)imino)dimethyl-λ^6-sulfanone], the IC50 at WEE1 kinase stood at 570 pM; in test [1] (Homo sapiens, 72 h), 60000 pM.

For `CCCc1cc2cnc(Nc3ccc(N4CCC(N5CCN(C)CC5)CC4)cc3)nc2n1-c1cccc(N=S(C)(C)=O)n1` [Example 136, dimethyl((6-(2-((4-(4-(4-methylpiperazin-1-yl)piperidin-1-yl)phenyl)amino)-6-propyl-7H-pyrrolo[2,3-d]pyrimidin-7-yl)pyridin-2-yl)imino)-λ^6-sulfanone], the IC50 turned out to be 900 pM at WEE1 kinase and 87000 pM in test [1] (Homo sapiens, 72 h).

On to `CN1CC2(CCN(c3ccc(Nc4ncc5cc(C6CC6)n(-c6cccc(N=S(C)(C)=O)n6)c5n4)cc3)CC2)C1` [Example 85, ((6-(6-cyclopropyl-2-((4-(2-methyl-2,7-diazaspiro[3.5]nonan-7-yl)phenyl)amino)-7H-pyrrolo[2,3-d]pyrimidin-7-yl)pyridin-2-yl)imino)dimethyl-λ^6-sulfanone], for which the IC50 worked out at 850 pM at WEE1 kinase and 79000 pM in test [1] (Homo sapiens, 72 h).

For the compound `CC(C)c1cc2cnc(Nc3ccc(N4CCN(C)CC4)cc3)nc2n1-c1cccc(N=S(C)(C)=O)n1` [Example 6, ((6-(6-isopropyl-2-((4 (4-methylpiperazin-1-yl)phenyl)amino)-7H-pyrrolo[2,3-d]pyrimidin-7-yl)pyridin-2-yl)imino)dimethyl-λ^6-sulfanone], the IC50 at WEE1 kinase was 960 pM.

On to `CCc1cc2cnc(Nc3ccc(N4CCN(C)CC4)cc3)nc2n1-c1cccc(C(C)(C)O)n1` [Example 159, 2-(6-(6-ethyl-2-((4-(4-methylpiperazin-1-yl)phenyl)amino)-7H-pyrrolo[2,3-d]pyrimidin-7-yl)pyridin-2-yl)propan-2-ol], for which the IC50 on WEE1 kinase came out at 590 pM.

`CN1CCN(c2ccc(Nc3ncc4c(F)c(C5CC5)n(-c5cccc(N=S(C)(C)=O)n5)c4n3)cn2)CC1` [Example 37, ((6-(6-cyclopropyl-5-fluoro-2-((6-(4-methylpiperazin-1-yl)pyridin-3-yl)amino)-7H-pyrrolo[2,3-d]pyrimidin-7-yl)pyridin-2-yl)imino)dimethyl-λ^6-sulfanone]: the IC50 on WEE1 kinase was determined as 1080 pM.

`CS(C)(=O)=Nc1cccc(-n2c(C3CC3)c(F)c3cnc(Nc4ccc(C5C[C@H]6CC[C@@H](C5)N6)cc4)nc32)n1` (stereo partly shown) [Example 63]: the IC50 at WEE1 kinase stood at 850 pM.

As to `CCCc1cc2cnc(Nc3ccc(N4CCN(C)CC4)cc3)nc2n1-c1cccc(C(C)(C)O)n1` [Example 2, 2-(6-(2-((4-(4-methylpiperazin-1-yl)phenyl)amino)-6-propyl-7H-pyrrolo[2,3-d]pyrimidin-7-yl)pyridin-2-yl)propan-2-ol], the IC50 on WEE1 kinase amounted to 880 pM.

In the case of `CS(C)(=O)=Nc1cccc(-n2c(C3CC3)c(F)c3cnc(Nc4ccc(N5CCC(N6CCOCC6)CC5)cc4)nc32)n1` [Example 35, ((6-(5-fluoro-2-((4-(4-(morpholine 4-yl)piperidin-1-yl)phenyl)amino)-6-cyclopropyl-7H-pyrrolo[2,3-d]pyrimidin-7-yl)pyridin-2-yl)imino)dimethyl-λ^6-sulfanone], on WEE1 kinase, the IC50 is 610 pM.

Take `Cc1cc2cnc(Nc3ccc(N4CCN(C)CC4)cc3)nc2n1-c1cccc(C(C)(C)O)n1` [Example 145, 2-(6-(6-methyl-2-((4 (4-methylpiperazin-1-yl)phenyl)amino)-7H-pyrrolo[2,3-d]pyrimidin-7-yl)pyridin-2-yl)propan-2-ol]: the IC50 on WEE1 kinase is 600 pM.

For the compound `CC(C)c1cc2cnc(Nc3ccc(N4CCN(C)CC4)cc3)nc2n1-c1cccc(C(C)(C)O)n1` [Example 141, 2-(6-(6-isopropyl-2-((4-(4-methylpiperazin-1-yl)phenyl)amino)-7H-pyrrolo[2,3-d]pyrimidin-7-yl)pyridin-2-yl)propan-2-ol], on WEE1 kinase, the IC50 came out at 840 pM.

As to `COc1cc(Nc2ncc3cc(C4CC4)n(-c4cccc(N=S(C)(C)=O)n4)c3n2)ccc1N1CCN(C)CC1` [Example 38, ((6-(2-(((3-methoxy-4-(4-methylpiperazin-1-yl)phenyl))amino)-6-cyclopropyl-7H-pyrrolo[2,3-d]pyrimidin-7-yl)pyridin-2-yl)imino)dimethyl-λ^6-sulfanone], the IC50 at WEE1 kinase was found to be 300 pM.

For the compound `CCCc1cc2cnc(Nc3ccc(N4CCN(CCN(C)C)CC4)cc3)nc2n1-c1cccc(C(C)(C)O)n1` [Example 109, 2-(6-(6-propyl-2-((4-(4 (2-(dimethylamino)ethyl)piperazin-1-yl)phenyl)amino)-7H-pyrrolo[2,3-d]pyrimidin-7-yl)pyridin-2-yl)propan-2-ol], the IC50 on WEE1 kinase was 1120 pM.

With `CS(C)(=O)=Nc1cccc(-n2c(C3CC3)c(F)c3cnc(Nc4ccc(N5C[C@H]6CC[C@@H](C5)N6)cc4)nc32)n1` [Example 80, ((6-(2-((4-((1R,5S)-3,8-diazabicyclo[3.2.1]octan-3-yl)phenyl)amino)-6-cyclopropyl-5-fluoro-7H-pyrrolo[2,3-d]pyrimidin-7-yl)pyridin-2-yl)imino)dimethyl-λ^6-sulfanone], the IC50 at WEE1 kinase turned out to be 1180 pM.

In the case of `CN1CCN(C2CCN(c3ccc(Nc4ncc5cc(C6CC6)n(-c6cccc(N=S(C)(C)=O)n6)c5n4)cc3Cl)CC2)CC1` [Example 54], the IC50 at WEE1 kinase came to 1040 pM.
